ChEMBL document CHEMBL2163248, “Classification of inhibitors of hepatic organic anion transporting polypeptides (OATPs): influence of protein expression on drug-drug interactions” (J Med Chem, 2012)

What was measured:
[1] = target: T1, Solute carrier organic anion transporter family member 1B1 (Homo sapiens, UniProt Q9Y6L6); assay: Inhibition of human liver OATP1B1 expressed in HEK293 Flp-In cells assessed as reduction in E17-betaG uptake at 20 uM by scintillation counting; details: hek293, 20 µM
T1 sequence (Q9Y6L6 whole entry): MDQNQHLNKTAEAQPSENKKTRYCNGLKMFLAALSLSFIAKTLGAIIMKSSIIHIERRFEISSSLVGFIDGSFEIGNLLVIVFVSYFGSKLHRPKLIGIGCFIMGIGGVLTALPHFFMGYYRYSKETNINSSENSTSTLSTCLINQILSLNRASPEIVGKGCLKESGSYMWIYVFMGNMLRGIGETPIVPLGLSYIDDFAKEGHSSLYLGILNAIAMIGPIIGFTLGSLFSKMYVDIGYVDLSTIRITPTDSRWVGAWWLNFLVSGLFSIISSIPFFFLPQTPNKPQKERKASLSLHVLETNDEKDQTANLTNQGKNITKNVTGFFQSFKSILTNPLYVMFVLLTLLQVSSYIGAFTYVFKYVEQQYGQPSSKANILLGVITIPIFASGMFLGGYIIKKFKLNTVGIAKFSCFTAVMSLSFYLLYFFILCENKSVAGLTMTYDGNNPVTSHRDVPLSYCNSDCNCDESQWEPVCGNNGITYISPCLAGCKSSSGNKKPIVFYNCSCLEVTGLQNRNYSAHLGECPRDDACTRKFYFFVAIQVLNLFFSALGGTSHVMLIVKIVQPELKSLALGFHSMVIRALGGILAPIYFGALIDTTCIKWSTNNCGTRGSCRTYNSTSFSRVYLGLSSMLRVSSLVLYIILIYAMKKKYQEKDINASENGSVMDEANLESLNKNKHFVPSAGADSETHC

[2] = target: T2, Solute carrier organic anion transporter family member 1B3 (Homo sapiens, UniProt Q9NPD5); assay: Inhibition of human liver OATP1B3 expressed in HEK293 Flp-In cells assessed as reduction in [3H]E17-betaG uptake at 20 uM incubated for 5 mins by scintillation counting; details: hek293, 5 min
T2 sequence (Q9NPD5 whole entry): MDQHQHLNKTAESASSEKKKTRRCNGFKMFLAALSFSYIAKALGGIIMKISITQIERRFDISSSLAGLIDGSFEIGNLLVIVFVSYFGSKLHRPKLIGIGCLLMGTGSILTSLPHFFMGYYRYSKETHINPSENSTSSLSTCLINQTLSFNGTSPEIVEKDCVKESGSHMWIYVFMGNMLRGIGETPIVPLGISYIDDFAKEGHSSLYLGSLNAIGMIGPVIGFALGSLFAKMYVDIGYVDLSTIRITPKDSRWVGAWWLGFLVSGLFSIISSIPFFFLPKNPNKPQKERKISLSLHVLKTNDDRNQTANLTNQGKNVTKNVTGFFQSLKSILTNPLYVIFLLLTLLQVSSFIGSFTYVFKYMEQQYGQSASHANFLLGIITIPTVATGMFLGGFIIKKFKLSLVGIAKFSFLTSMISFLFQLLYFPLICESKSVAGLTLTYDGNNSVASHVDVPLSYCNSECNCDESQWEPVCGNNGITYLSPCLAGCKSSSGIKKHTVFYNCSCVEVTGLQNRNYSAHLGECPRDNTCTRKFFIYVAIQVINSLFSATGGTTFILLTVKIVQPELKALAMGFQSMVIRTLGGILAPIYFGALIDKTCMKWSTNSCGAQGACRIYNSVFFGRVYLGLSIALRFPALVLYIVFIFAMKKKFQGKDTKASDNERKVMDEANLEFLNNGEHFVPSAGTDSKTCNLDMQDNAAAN

[3] = target: T3, Solute carrier organic anion transporter family member 2B1 (Homo sapiens, UniProt O94956); assay: Inhibition of human liver OATP2B1 expressed in HEK293 Flp-In cells assessed as reduction in [3H]E3S uptake at 20 uM incubated for 5 mins by scintillation counting; details: hek293, 5 min
T3 sequence (O94956 whole entry): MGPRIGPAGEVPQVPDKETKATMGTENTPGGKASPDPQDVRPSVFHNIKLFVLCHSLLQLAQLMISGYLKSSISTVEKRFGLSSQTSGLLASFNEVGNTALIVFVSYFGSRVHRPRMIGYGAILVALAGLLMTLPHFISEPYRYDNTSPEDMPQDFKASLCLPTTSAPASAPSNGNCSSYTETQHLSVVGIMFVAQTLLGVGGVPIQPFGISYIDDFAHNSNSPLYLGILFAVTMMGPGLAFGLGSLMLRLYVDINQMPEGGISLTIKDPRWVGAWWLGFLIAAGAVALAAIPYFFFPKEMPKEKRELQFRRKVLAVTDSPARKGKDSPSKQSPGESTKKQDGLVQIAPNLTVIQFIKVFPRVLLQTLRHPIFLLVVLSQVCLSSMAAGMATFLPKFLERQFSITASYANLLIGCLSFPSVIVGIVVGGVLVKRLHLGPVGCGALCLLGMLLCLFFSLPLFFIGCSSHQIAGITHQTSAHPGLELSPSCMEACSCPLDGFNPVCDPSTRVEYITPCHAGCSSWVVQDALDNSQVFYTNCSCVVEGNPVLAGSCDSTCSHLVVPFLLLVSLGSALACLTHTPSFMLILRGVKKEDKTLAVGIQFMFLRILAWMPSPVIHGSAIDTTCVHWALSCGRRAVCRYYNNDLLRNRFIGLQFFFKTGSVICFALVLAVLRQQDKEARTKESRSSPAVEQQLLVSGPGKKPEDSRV

| Molecule | INH [1] [%] | INH [2] [%] | INH [3] [%] |
| --- | --- | --- | --- |
| CCOc1cc(CC(=O)N[C@@H](CC(C)C)c2ccccc2N2CCCCC2)ccc1C(=O)O [REPAGLINIDE] | 88.4 | 83.2 | 42.2 |
| CO[C@H]1/C=C/O[C@@]2(C)Oc3c(C)c(O)c4c(O)c(c(/C=N/N5CCN(C)CC5)c(O)c4c3C2=O)NC(=O)/C(C)=C\C=C\[C@H](C)[C@H](O)[C@@H](C)[C@@H](O)[C@@H](C)[C@H](OC(C)=O)[C@@H]1C [RIFAMPIN] | 88.3 | 101.7 | 21.2 |
| CO[C@H]1/C=C/O[C@@]2(C)Oc3c(C)c(O)c4c(O)c(cc(O)c4c3C2=O)NC(=O)/C(C)=C\C=C\[C@H](C)[C@H](O)[C@@H](C)[C@@H](O)[C@@H](C)[C@H](OC(C)=O)[C@@H]1C [RIFAMYCIN] | 95.4 | 101.4 | 74.8 |
| CN(CCOc1ccc(CC2SC(=O)NC2=O)cc1)c1ccccn1 (centres undefined) [ROSIGLITAZONE] | 79.1 | -32.1 | 10 |
| CC(C)c1nc(N(C)S(C)(=O)=O)nc(-c2ccc(F)cc2)c1/C=C/[C@@H](O)C[C@@H](O)CC(=O)O [ROSUVASTATIN] | 71.4 | 55.4 | 51.2 |
| CC(C)NCC(O)c1ccc(NS(C)(=O)=O)cc1 (centres undefined) [SOTALOL] | 46.4 | 6.6 | 19 |
| CC(=O)S[C@@H]1CC2=CC(=O)CC[C@]2(C)[C@H]2CC[C@@]3(C)[C@@H](CC[C@@]34CCC(=O)O4)[C@H]12 [SPIRONOLACTONE] | 88.3 | -34.2 | -82 |
| O=C(O)c1cc(/N=N/c2ccc(S(=O)(=O)Nc3ccccn3)cc2)ccc1O [SULFASALAZINE] | 92.1 | 72.1 | 92.3 |
| O=C1OC(c2ccc(O)c(S(=O)(=O)[O-])c2)(c2ccc(O)c(S(=O)(=O)[O-])c2)c2c(Br)c(Br)c(Br)c(Br)c21.[Na+].[Na+] [SULFOBROMOPHTHALEIN SODIUM] | 94.1 | 74.9 | 69.3 |
| C[C@H](CCC(=O)NCCS(=O)(=O)O)[C@H]1CC[C@H]2[C@@H]3[C@H](O)C[C@@H]4C[C@H](O)CC[C@]4(C)[C@H]3CC[C@]12C [TAUROCHENODEOXYCHOLATE] | 89.5 | 82.4 | 47.2 |
| C[C@H](CCC(=O)NCCS(=O)(=O)O)[C@H]1CC[C@H]2[C@@H]3CC[C@@H]4C[C@H](O)CC[C@]4(C)[C@H]3CC[C@]12C [TAUROLITHOCHOLIC ACID] | 97.8 | 89.8 | 94.6 |
| C[C@H](Cn1cnc2c(N)ncnc21)OCP(=O)(O)O [TENOFOVIR ANHYDROUS] | 18.4 | 33.6 | 23.3 |
| CC(C)(C)c1ccc(C(O)CCCN2CCC(C(O)(c3ccccc3)c3ccccc3)CC2)cc1 (centres undefined) [TERFENADINE] | 42.7 | 33.3 | 3.7 |
| CN(C)[C@@H]1C(O)=C(C(N)=O)C(=O)[C@@]2(O)C(O)=C3C(=O)c4c(O)cccc4[C@@](C)(O)[C@H]3C[C@@H]12 [TETRACYCLINE] | 22.1 | 29.5 | 51.1 |
| CC[N+](CC)(CC)CC [TETRYLAMMONIUM] | 25.9 | 4.9 | 6.7 |
| Cn1c(=O)c2[nH]cnc2n(C)c1=O.O [THEOPHYLLINE] | 0.8 | 2.5 | -25.5 |
| CSc1ccc2c(c1)N(CCC1CCCCN1C)c1ccccc1S2 (centres undefined) [THIORIDAZINE] | 26.1 | 25.2 | 21.5 |

| Molecule | INH [1] [%] | INH [2] [%] | INH [3] [%] |
| --- | --- | --- | --- |
| S=P(N1CC1)(N1CC1)N1CC1 [THIOTEPA] | -40.3 | 0.6 | 16.2 |
| Clc1ccccc1CN1CCc2sccc2C1 [TICLOPIDINE] | 19.4 | 0.2 | 23 |
| CCCCNC(=O)NS(=O)(=O)c1ccc(C)cc1 [TOLBUTAMIDE] | 9.1 | 5.8 | 15.5 |
| CC[C@@]1(O)C(=O)OCc2c1cc1n(c2=O)Cc2cc3c(CN(C)C)c(O)ccc3nc2-1 [TOPOTECAN] | 36.7 | 17.3 | -39.2 |
| Cc1nnc2n1-c1ccc(Cl)cc1C(c1ccccc1Cl)=NC2 [TRIAZOLAM] | 45.7 | 18.7 | -20.5 |
| COc1cc(Cc2cnc(N)nc2N)cc(OC)c1OC [TRIMETHOPRIM] | 24.7 | 18.8 | 35.1 |
| CC(C)C[C@H](NC(=O)[C@@H](O)[C@H](N)Cc1ccccc1)C(=O)O [UBENIMEX] | 10.9 | 31.8 | 20.7 |
| CC(C)[C@H](N)C(=O)OCCOCn1cnc2c(=O)[nH]c(N)nc21 [VALACYCLOVIR] | 8.3 | 6.6 | -7.3 |
| C/C=C/C[C@@H](C)C(=O)[C@H]1C(=O)N[C@@H](C(C)C)C(=O)N(C)CC(=O)N(C)[C@@H](CC(C)C)C(=O)N[C@@H](C(C)C)C(=O)N(C)[C@@H](CC(C)C)C(=O)N[C@@H](C)C(=O)N[C@H](C)C(=O)N(C)[C@@H](CC(C)C)C(=O)N(C)[C@@H](CC(C)C)C(=O)N(C)[C@@H](C(C)C)C(=O)N1C [VALSPODAR] | 96.3 | 93.9 | 33.1 |
| c1cnc2cc3c(cc2n1)[C@@H]1CNC[C@H]3C1 [VARENICLINE] | 24.7 | 0.8 | 27.3 |
| CC[C@]1(O)C[C@@H]2CN(CCc3c([nH]c4ccccc34)[C@@](C(=O)OC)(c3cc4c(cc3OC)N(C)[C@H]3[C@@](O)(C(=O)OC)[C@H](OC(C)=O)[C@]5(CC)C=CCN6CC[C@]43[C@@H]65)C2)C1 [VINBLASTINE] | 57.6 | 54.3 | -9.3 |
| CC(=O)CC(c1ccccc1)c1c(O)c2ccccc2oc1=O (centres undefined) [WARFARIN] | 27.8 | -3.2 | 31.6 |
| Cc1cn([C@H]2C[C@H](N=[N+]=[N-])[C@@H](CO)O2)c(=O)[nH]c1=O [ZIDOVUDINE] | 9.5 | 7.1 | 4.7 |
| FLUPENTIXOL | 30.2 | 13.5 | 9.5 |
| IVERMECTIN | 64.7 | 55.2 | 39 |
| NYSTATIN | 69.3 | 74.9 | 23.4 |
